Laboratory results taken from patent US20080182895A1 (priority 2006, published 2008).
Where two headings read alike, the source gives them in different places.

Experiments:
1b, BB7 replicon (WT) = test: Replicon 3-day assay, wild type; format: cell-based, Hepatitis C virus; settings: for EC50: Hepatitis C virus
Description: (§1) pBB7-replicon variant DNAs were linearized with Sca I, and in vitro transcription was performed using Ambion's […]® T7 High Yield Transcription kit (Austin, Tex.). Purified RNA transcripts were electroporated into Huh-7 cells in quadruplicates using a Biorad GENE PULSER® Electroporation System (Setting: 270V, 950 μF) (Hercules, Calif.). Stably transfected replicon variant cell lines were initially selected with 0.25 mg/ml G418 and stepped up to 1 mg/ml before further testing. One cell plate was stained with Crystal Violet to visualize the number of colonies and determine the colony formation efficiency. Individual cell clones from each plate were pooled and expanded for drug susceptibility testing.
(§2) The contribution of individual amino acid changes on drug resistance was assessed in replicon variants containing single amino acid mutations in NS5B in the background of the genotype 1b, BB7 adaptive replicon (Blight et al. (2000) Science 290:1972-74).
(§3) Drug susceptibility of the replicon-containing cells to various compounds was evaluated as described previously (Howe et al. (2004) Antimicrobial Agents Chem. 48:4813-21). Briefly, cells were treated with increasing concentrations of compounds in medium containing 2% FCS and no G418 for three days at 37° C. and 5% CO2. After incubation, total RNA from the replicon-containing cells was isolated. The levels of HCV, glyceraldehyde 3-phosphate dehydrogenase (GAPDH) and ribosomal (rRNA) RNAs were quantified using TAQMAN® (PE Applied Biosystems, Foster City, Calif.) reverse transcriptase PCR reactions. The amounts of HCV, 18S ribosomal, and GAPDH RNAs in each sample were estimated by comparing the number of cycles during the exponential phase of the PCR amplification with those in the corresponding standard curves. HCV RNA standards used for the construction of the standard curve were prepared by extracting the total RNA from the Clone A cells. The RNA sample was sent to National Genetics Institute to quantify HCV RNA. Total RNA extracted from Clone A cells was quantified by O.D.260 measurement and used for construction of the standard curves of rRNA and GAPDH. The concentrations of the compounds that inhibit 50% of the HCV RNA level (EC50) were determined using the MDL® LIFE SCIENCE WORKBENCH® (LSW) Data Analysis software (MDL Information Systems, San Leandro, Calif.) in Microsoft EXCEL®. The amounts of HCV or GAPDH RNAs in the samples were expressed as HCV RNA (copies) or GAPDH (ng), respectively, per μg of total RNA using rRNA as a marker for total RNA measurement.

1b, BB7-C316S replicon = test: Replicon variant 3-day assay; format: cell-based, Hepatitis C virus
Description: as §1, §2, §3

1b, BB7-I363V replicon = test: Replicon variant 3-day assay; format: cell-based, Hepatitis C virus
Description: as §1, §2, §3

1b, BB7-M414T replicon = test: Replicon variant 3-day assay; format: cell-based, Hepatitis C virus
Description: as §1, §2, §3

1b, BB7-C316F replicon = test: Replicon variant 3-day assay; format: cell-based, Hepatitis C virus
Description: as §1, §2, §3

1b, BB7-S368F replicon = test: Replicon variant 3-day assay; format: cell-based, Hepatitis C virus
Description: as §1, §2, §3

1b, BB7-S365A replicon = test: Replicon variant 3-day assay; format: cell-based, Hepatitis C virus
Description: as §1, §2, §3

[1] = target: T1, HCV NS5B enzyme BB7 (C316) (Hepatitis C virus genotype 1b, UniProt Q9WMX2); test: biochemical
T1 construct: according to the protocol for NS5B-BB7dCT21-His as described; His (C); made in house; host or cells: E. coli
Description: All NS5B enzymes were expressed and purified according to the protocol for NS5B-BB7dCT21-His as described (Howe et al. (2004) Antimicrobial Agents Chem. 48:4813-21). Briefly, expression plasmids were transformed into E. coli cells and NS5B expression was initiated by the addition of isopropyl-beta-D-thiogalactopyranoside (IPTG). After 4 to 6 hours of incubation the cells were harvested and lysed. NS5B enzymes were purified by chromatography using a nickel affinity column (Talon, B D Biosciences, Clontech Laboratories, Inc., Mountain View, Calif.)) followed by a cation exchange column (Poros H S, Applied Biosystems, Foster City, Calif.).

Question: `CNC(=O)c1c(-c2ccc(F)cc2)oc2cc(N(CCO)S(C)(=O)=O)c(C3CC3)cc12` [HCV-796, 5-cyclopropyl-2-(4-fluorophenyl)-6-[(2-hydroxyethyl)(methylsulfonyl)amino]-N-methyl-1-benzofuran-3-carboxamide] was tested. Which “Viral Load Reduction” value (1b, BB7 replicon (WT); 1b, BB7, 2240 nM HCV-796, 3-day assay) did it give?
Answer: Its value is 1.9 ± 0.3 log.

Question: What about the EC50 (1b, BB7 replicon (WT)) of the same compound?
Answer: Its EC50 is 8.6 nM.

Question: What about the EC50 (1b, BB7 replicon (WT); 72 h, 1b, BB7, 3-day assay, read-out: HCV RNA EC50 (nM) ± SD) of the same compound?
Answer: The EC50 was 3 ± 1 nM.

Question: What about the “Fold Resistance” value (1b, BB7-C316S replicon; BB7-C316S vs 1b, BB7) of the same compound?
Answer: Its value is 10 fold.

Question: And the “Viral Load Reduction” value (1b, BB7-C316S replicon; BB7-C316S, 2240 nM HCV-796, 3-day assay)?
Answer: The value was 1.3 ± 0.1 log.

Question: What about the EC50 (1b, BB7-C316S replicon; Hepatitis C virus, 72 h, BB7-C316S, 3-day assay, read-out: HCV RNA EC50 (nM) ± SD) of the same compound?
Answer: Its EC50 is 30 nM.

Question: And the “Fold Resistance” value (1b, BB7-I363V replicon; BB7-I363V vs 1b, BB7)?
Answer: Its value is 5 fold.

Question: And the “Viral Load Reduction” value (1b, BB7-I363V replicon; BB7-I363V, 2240 nM HCV-796, 3-day assay)?
Answer: The value was 1.4 ± 0.1 log.

Question: And the EC50 (1b, BB7-I363V replicon; Hepatitis C virus, 72 h, BB7-I363V, 3-day assay, read-out: HCV RNA EC50 (nM) ± SD)?
Answer: The EC50 was 16 ± 5 nM.

Question: What about the “Fold Resistance” value (1b, BB7-M414T replicon; 1b, BB7-M414T vs 1b, BB7) of the same compound?
Answer: Its value is 1 fold.

Question: What about the “Viral Load Reduction” value (1b, BB7-M414T replicon; 1b, BB7-M414T, 2240 nM HCV-796, 3-day assay) of the same compound?
Answer: Its value is 2.0 ± 0.2 log.

Question: And the “change of susceptibility to HCV-796 (in words)” value (1b, BB7-M414T replicon; M414T replicon vs wild type)?
Answer: Its value is “did not change the susceptibility”.

Question: What about the “Fold Resistance” value (1b, BB7-C316F replicon; BB7-C316F vs 1b, BB7) of the same compound?
Answer: Its value is 130 fold.

Question: What about the “Viral Load Reduction” value (1b, BB7-C316F replicon; BB7-C316F, 2240 nM HCV-796, 3-day assay) of the same compound?
Answer: Its value is 0.8 ± 0.5 log.

Question: And the EC50 (1b, BB7-C316F replicon; Hepatitis C virus, 72 h, BB7-C316F, 3-day assay, read-out: HCV RNA EC50 (nM) ± SD)?
Answer: The EC50 was 392 nM.

Question: What about the “Fold Resistance” value (1b, BB7-S368F replicon; BB7-S368F vs 1b, BB7) of the same compound?
Answer: Its value is 2 fold.

Question: And the “Viral Load Reduction” value (1b, BB7-S368F replicon; BB7-S368F, 2240 nM HCV-796, 3-day assay)?
Answer: The value was 1.4 ± 0.3 log.

Question: And the EC50 (1b, BB7-S368F replicon; Hepatitis C virus, 72 h, BB7-S368F, 3-day assay, read-out: HCV RNA EC50 (nM) ± SD)?
Answer: The EC50 was 5 ± 2 nM.

Question: And the “Fold Resistance” value (1b, BB7-S365A replicon; BB7-S365A vs 1b, BB7)?
Answer: The value was 41 fold.

Question: And the “Viral Load Reduction” value (1b, BB7-S365A replicon; BB7-S365A, 2240 nM HCV-796, 3-day assay)?
Answer: The value was 1.7 ± 0.1 log.

Question: What about the EC50 (1b, BB7-S365A replicon; Hepatitis C virus, 72 h, BB7-S365A, 3-day assay, read-out: HCV RNA EC50 (nM) ± SD) of the same compound?
Answer: Its EC50 is 124 ± 41 nM.

Question: And the IC50 [1]?
Answer: The IC50 was 40 nM.
